Experiments:
Assay in all cases: MIC by broth dilution method (Table 4)
Assay type in all cases: cell-based
Set-up in all cases: unit not given here
[1] = system: E. faecalis pMV158; details: E. faecalis pMV158 Tc^r; 18 hours
Procedure: (§1) The minimum inhibitory concentration, the lowest concentration of drug that inhibits bacterial growth at 18 hours at their appropriate temperature, is determined by the broth dilution method using L-broth or Muller-Hinton broth. The Muller-Hinton broth was cation-adjusted accordingly and all bacteriological methods were performed as was described by Waitz, J. A., National Commision for Clinical Laboratory Standards Document M7-A2, vol.10, no. 8, pp.13-20, 2nd edition, Villanova, Pa. (1990). The organisms tested represent gram-positive and gram-negative bacterial species that are susceptible to tetracyclines or are resistant to tetracyclines due to the ability to efflux tetracyclines or which confer resistance by ribosomal protection mechanisms. The clinical strains used are either susceptible to tetracyclines or are resistant to them by either drug efflux or ribosomal protection.

[2] = system: E. coli D31m4; details: E. coli D31m4* Tc^r, lipopolysaccharide-deficient mutant; 18 hours
Procedure: as §1

[3] = system: E. faecalis pAM211; details: E. faecalis pAM211 Tc^r; 18 hours
Procedure: as §1

[4] = system: S. aureus ATCC12715; details: S. aureus Tc^r ATCC12715; 18 hours
Procedure: as §1

[5] = system: S. aureus RN450; details: S. aureus RN450 Tc^s; 18 hours
Procedure: as §1

[6] = system: E. faecalis ATCC9790; details: E. faecalis Tc^r ATCC9790; 18 hours
Procedure: as §1

[7] = system: S. aureus RN4250; details: S. aureus RN4250 Tc^r; 18 hours
Procedure: as §1

[8] = system: S. aureus MRSA5; details: S. aureus MRSA5 Tc^r; 18 hours
Procedure: as §1

[9] = system: E. coli D31m4(pHCM1); details: E. coli D31m4(pHCM1) Tcr; 18 hours
Procedure: as §1

SMILES | Antibacterial activity (minimum inhibitory concentration) [1] | Antibacterial activity (minimum inhibitory concentration) [2] | Antibacterial activity (minimum inhibitory concentration) [3] | Antibacterial activity (minimum inhibitory concentration) [4] | Antibacterial activity (minimum inhibitory concentration) [5] | Antibacterial activity (minimum inhibitory concentration) [6] | Antibacterial activity (minimum inhibitory concentration) [7] | Antibacterial activity (minimum inhibitory concentration) [8] | Antibacterial activity (minimum inhibitory concentration) [9]
CC1c2ccc(C(C)(C)CCC[N+](=O)[O-])c(O)c2C(=O)C2=C(O)[C@]3(O)C(=O)C(C(N)=O)=C(O)[C@@H](N(C)C)C3C(O)C21 (stereo partly drawn) [M, [4S-(4alpha,12a-alpha)]-9-[4′-(1′-nitro-4′-methyl)pentyl]-4-(dimethylamino)-1,4,4a,5,5a,6,11,12a-octahydro-3,5,10,12,12a-pentahydroxy-6-methyl-1,11-dioxo-2-naphthacenecarboxamide] | 0.78 | 12.5 | 0.78 | 1.56 | 3.12 | 0.78 | 0.78 | 0.78 | –
CCCC(C)(C)c1ccc2c(c1O)C(=O)C1=C(O)[C@]3(O)C(=O)C(C(N)=O)=C(O)[C@@H](N(C)C)C3C(O)C1C2C (stereo partly drawn) [H, [4S-(4alpha,12aalpha)]-9-[2′-(2′-methyl)pentyl]-4-(dimethylamino)-1,4,4a,5,5a,6,11,12a-octahydro-3,5,10,12,12a-pentahydroxy-6-methyl-1,11-dioxo-2-naphthacenecarboxamide] | 0.78 | 50 | 0.78 | 0.78 | 0.08 | 0.78 | 0.39 | 0.39 | 1.56
CCC(=O)OC1C2C(=C(O)C3(O)C(=O)C(C(N)=O)=C(O)C(N(C)C)C13)C(=O)c1c(ccc(C(C)(C)C)c1O)C2C (stereo not drawn) [B, [4S-(4alpha,12aalpha)]-9-(tert-butyl)-4-(dimethylamino)-5-propionylcarbonyloxy-1,4,4a,5,5a,6,11,12a-octahydro-3,10,12,12a-tetrahydroxy-6-methyl-1,11-dioxo-2-naphthacenecarboxamide] | 0.39 | 6.25 | 0.78 | 1.56 | 0.39 | 1.56 | 0.78 | 3.12 | 6.25
CC1c2ccc(C(C)(C)CCCN3CCCC3)c(O)c2C(=O)C2=C(O)[C@]3(O)C(=O)C(C(N)=O)=C(O)[C@@H](N(C)C)C3C(O)C21 (stereo partly drawn) [K, [4S-(4alpha,12a-alpha)]-9-[4′-(1′-pyrrolidinyl-4′-methyl)pentyl]-4-(dimethylamino)-1,4,4a,5,5a,6,11,12a-octahydro-3,5,10,12,12a-pentahydroxy-6-methyl-1,11-dioxo-2-naphthacenecarboxamide] | 25 | 50 | 25 | 50 | 25 | 25 | 50 | 6.25 | 50
CC1c2ccc(C(C)(C)CCCC#N)c(O)c2C(=O)C2=C(O)C3(O)C(=O)C(C(N)=O)=C(O)C(N(C)C)C3C(O)C21 (stereo not drawn) [L, [4S-(4alpha,12aalpha)]-9-[4′-(1′-cyano-4′-methyl)pentyl]-4-(dimethylamino)-1,4,4a,5,5a,6,11,12a-octahydro-3,5,10,12,12a-pentahydroxy-6-methyl-1,11-dioxo-2-naphthacenecarboxamide] | – | – | – | 6.25 | 1.56 | 3.12 | 3.12 | 6.25 | –
CC(=O)OC1C2C(=C(O)C3(O)C(=O)C(C(N)=O)=C(O)C(N(C)C)C13)C(=O)c1c(ccc(C(C)(C)C)c1O)C2C (stereo not drawn) [C, [4S-(4alpha,12aalpha)]-9-(tert-butyl)-4-(dimethylamino)-5-acetylcarbonyloxy-1,4,4a,5,5a,6,11,12a-octahydro-3,10,12,12a-tetrahydroxy-6-methyl-1,11-dioxo-2-naphthacenecarboxamide] | 0.39 | 3.12 | 0.78 | 0.78 | 0.39 | 0.78 | 0.39 | 1.56 | 3.12
CC1c2ccc(C(C)(C)CCCN(C)C)c(O)c2C(=O)C2=C(O)[C@]3(O)C(=O)C(C(N)=O)=C(O)[C@@H](N(C)C)C3C(O)C21 (stereo partly drawn) [J, [4S-(4alpha,12aalpha)]-9-[4′-(1′-dimethylamino-4′-methyl)pentyl]-4-(dimethylamino)-1,4,4a,5,5a,6,11,12a-octahydro-3,5,10,12,12a-pentahydroxy-6-methyl-1,11-dioxo-2-naphthacenecarboxamide] | 50 | 50 | 50 | 50 | 50 | 50 | 50 | 50 | 50
CC1c2ccc(C3(C)CCC3)c(O)c2C(=O)C2=C(O)[C@]3(O)C(=O)C(C(N)=O)=C(O)[C@@H](N(C)C)C3C(O)C21 (stereo partly drawn) [G, [4S-(4alpha,12aalpha)]-9-[1′-(1′-methyl)cyclobutyl]-4-(dimethylamino)-1,4,4a,5,5a,6,11,12a-octahydro-3,5,10,12,12a-pentahydroxy-6-methyl-1,11-dioxo-2-naphthacenecarboxamide] | – | 6.25 | – | 3.12 | 1.56 | 0.78 | 3.12 | 0.08 | 6.25
CC1c2ccc(C3(C)CCCCC3)c(O)c2C(=O)C2=C(O)[C@]3(O)C(=O)C(C(N)=O)=C(O)[C@@H](N(C)C)C3C(O)C21 (stereo partly drawn) [E, [4S-(4alpha,12aalpha)]-9-[1′-(1′-methyl)cyclohexyl]-4-(dimethylamino)-1,4,4a,5,5a,6,11,12a-octahydro-3,5,10,12,12a-pentahydroxy-6-methyl-1,11-dioxo-2-naphthacenecarboxamide] | – | 25 | – | 6.25 | 1.56 | 0.39 | 6.25 | 6.25 | 25
CC1c2ccc(C(C)(C)C)c(O)c2C(=O)C2=C(O)[C@]3(O)C(=O)C(C(N)=O)=C(O)[C@@H](N(C)C)C3C(O)C21 (stereo partly drawn) [A, [4S-(4alpha,12aalpha)]-9-(tert-butyl)-4-(dimethylamino)-1,4,4a,5,5a,6,11,12a-octahydro-3,5,10,12,12a-pentahydroxy-6-methyl-1,11-dioxo-2-naphthacenecarboxamide] | – | – | – | 3.12 | 0.78 | 1.56 | 1.56 | 3.12 | –
CC1c2ccc(C(C)(C)C)c(O)c2C(=O)C2=C(O)[C@]3(O)C(=O)C(C(N)=O)=C(O)[C@@H](N(C)C)C3C(OC(=O)C3CCC3)C21 (stereo partly drawn) [D, [4S-(4alpha,12aalpha)]-9-(tert-butyl)-4-(dimethylamino)-5-cyclobutylcarbonyloxy-1,4,4a,5,5a,6,11,12a-octahydro-3,10,12,12a-tetrahydroxy-6-methyl-1,11-dioxo-2-naphthacenecarboxamide] | 50 | 50 | – | 3.12 | 0.78 | 0.78 | 3.12 | 1.56 | 50

— patent US20040152674A1, “Pharmaceutically active compounds and methods of use thereof” (Trustees of Tufts College, priority 1998, published 2004)
